Data taken from article PMC7930286 (Heliyon, 2021).

Experiments:
[1] = molecular target: butyrylcholinesterase (BChE) (Homo sapiens, UniProt P06276); assay: Anticholinesterase; format: biochemical; conditions: for inhibition at 62.5 µg/mL: read-out: Percent BChE inhibition (mean ± SEM), 62.5 μg/mL; for inhibition at 250 µg/mL: read-out: Percent BChE inhibition (mean ± SEM), 250 μg/mL; for inhibition at 500 µg/mL: read-out: Percent BChE inhibition (mean ± SEM), 500 μg/mL; for inhibition at 1000 µg/mL: read-out: Percent BChE inhibition (mean ± SEM), 1000 μg/mL; for inhibition at 125 µg/mL: read-out: Percent BChE inhibition (mean ± SEM), 125 μg/mL
[2] = DPPH free radical scavenging assay; conditions: for DPPH Percent inhibition (mean ± S.E.M): n = 3
[3] = ABTS free radical scavenging assay; conditions: for ABTS percent inhibition (mean ± S.E.M): n = 3
α-glucosidase = assay: Inhibitory assay of α-glucosidase; format: biochemical; conditions: for Alpha-glucosidase %inhibition (mean ± SEM): n = 3
α-amylase = assay: Inhibitory assay of α-amylase; format: biochemical; conditions: for Alpha-amylase % inhibition (mean ± SEM): n = 3
[4] = Solubility description of isolated compounds; format: physicochemical
[5] = molecular target: acetylcholinesterase (AChE) (Homo sapiens, UniProt P22303); assay: biochemical; conditions: for inhibition at 62.5 µg/mL / inhibition at 250 µg/mL / inhibition at 500 µg/mL / inhibition at 1000 µg/mL: read-out: Percent AChE inhibition (mean ± SEM)
Chain of acetylcholinesterase (AChE) (P22303 32-614, species assumed): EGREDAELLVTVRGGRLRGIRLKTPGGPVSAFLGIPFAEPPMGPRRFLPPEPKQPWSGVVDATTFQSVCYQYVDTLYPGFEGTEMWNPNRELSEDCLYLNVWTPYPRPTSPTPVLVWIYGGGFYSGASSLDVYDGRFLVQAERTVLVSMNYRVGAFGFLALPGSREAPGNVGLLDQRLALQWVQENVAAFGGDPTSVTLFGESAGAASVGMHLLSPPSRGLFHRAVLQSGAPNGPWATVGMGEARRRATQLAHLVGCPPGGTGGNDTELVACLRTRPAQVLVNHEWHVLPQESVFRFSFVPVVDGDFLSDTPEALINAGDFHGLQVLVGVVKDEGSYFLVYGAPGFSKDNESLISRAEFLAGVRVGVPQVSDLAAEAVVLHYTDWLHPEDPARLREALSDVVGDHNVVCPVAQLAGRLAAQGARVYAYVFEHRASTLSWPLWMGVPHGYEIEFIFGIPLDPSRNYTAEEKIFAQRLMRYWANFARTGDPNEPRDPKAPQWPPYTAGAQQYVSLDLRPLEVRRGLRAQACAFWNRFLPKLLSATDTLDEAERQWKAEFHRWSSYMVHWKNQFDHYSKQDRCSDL

Chain of butyrylcholinesterase (BChE) (P06276 29-602, species assumed): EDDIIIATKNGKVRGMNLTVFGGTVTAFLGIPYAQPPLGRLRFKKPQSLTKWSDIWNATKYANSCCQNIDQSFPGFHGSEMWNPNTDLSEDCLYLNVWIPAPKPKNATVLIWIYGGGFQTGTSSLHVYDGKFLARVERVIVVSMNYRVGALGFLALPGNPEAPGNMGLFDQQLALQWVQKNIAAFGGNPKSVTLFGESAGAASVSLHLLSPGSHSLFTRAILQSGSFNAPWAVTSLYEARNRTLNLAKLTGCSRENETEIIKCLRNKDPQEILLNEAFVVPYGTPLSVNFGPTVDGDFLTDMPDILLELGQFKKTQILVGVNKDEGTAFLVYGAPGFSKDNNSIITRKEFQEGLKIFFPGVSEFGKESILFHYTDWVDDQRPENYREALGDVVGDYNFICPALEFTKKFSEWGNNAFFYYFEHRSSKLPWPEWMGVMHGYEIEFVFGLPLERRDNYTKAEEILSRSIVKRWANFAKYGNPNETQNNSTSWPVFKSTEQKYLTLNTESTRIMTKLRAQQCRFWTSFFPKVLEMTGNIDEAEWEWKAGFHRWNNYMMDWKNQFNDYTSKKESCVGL

Compound | inhibition at 62.5 µg/mL ([1]; n = 3) | inhibition at 250 µg/mL ([1]; n = 3) | inhibition at 500 µg/mL ([1]; n = 3) | inhibition at 1000 µg/mL ([1]; n = 3) | DPPH IC50 [2] | DPPH Percent inhibition (mean ± S.E.M) ([2]; 62.5 μg/mL) | DPPH Percent inhibition (mean ± S.E.M) ([2]; 125 μg/mL) | DPPH Percent inhibition (mean ± S.E.M) ([2]; 250 μg/mL) | DPPH Percent inhibition (mean ± S.E.M) ([2]; 500 μg/mL) | DPPH Percent inhibition (mean ± S.E.M) ([2]; 1000 μg/mL) | ABTS IC50 [3] | ABTS percent inhibition (mean ± S.E.M) ([3]; 62.5 μg/mL) | ABTS percent inhibition (mean ± S.E.M) ([3]; 250 μg/mL) | ABTS percent inhibition (mean ± S.E.M) ([3]; 500 μg/mL) | ABTS percent inhibition (mean ± S.E.M) ([3]; 1000 μg/mL) | inhibition at 125 µg/mL ([1]; n = 3) | Alpha-amylase % inhibition (mean ± SEM) (α-amylase; 125 μg/mL) | Alpha-amylase % inhibition (mean ± SEM) (α-amylase; 250 μg/mL) | Alpha-amylase % inhibition (mean ± SEM) (α-amylase; 500 μg/mL) | Alpha-amylase % inhibition (mean ± SEM) (α-amylase; 1000 μg/mL) | other results
COc1ccc2c3c1O[C@H]1C[C@@H](O)C=C[C@@]31CCN(C)C2 [Galantamine, reference compound] | 54.1 ± 1% | 71.8 ± 1.5% | 81.8 ± 1.4% | 92 ± 0.8% | – | – | – | – | – | – | – | – | – | – | – | – | – | – | – | – | –
CCCCCCCOc1ccc(C(=O)O)cc1 [Compound VII, 4-heptyloxy benzoic acid] | 47.2 ± 1.2% | 62.1% | 71.1 ± 0.8% | 80 ± 1.1% | 118 µg/mL | 46.7 ± 2.1∗∗ % | 51.9 ± 1.3∗∗ % | 62.5 ± 1.1∗∗∗∗ % | 71.2 ± 1.3∗∗∗∗ % | 80.4 ± 1.1∗∗∗∗ % | 115 µg/mL | 46.1 ± 1.9∗∗ % | 62.1 ± 1.3∗∗∗ % | 71.2 ± 2.1∗∗∗∗ % | 80.1 ± 1.0∗∗∗∗ % | 53.4 ± 1.1% | 51.4 ± 1.5∗∗∗ % | 61.2 ± 2.2∗ % | 64.5 ± 2.8∗∗ % | 73.3 ± 1.1∗∗∗∗ % | IC50 ([1]; BChE IC50): 381 µM; Alpha-glucosidase IC50 (α-glucosidase): 108 µg/mL; Alpha-amylase IC50 (α-amylase): 110 µg/mL; solubility (description) [4]: soluble in organic solvents; IC50 [5]: 377 µM; inhibition at 62.5 µg/mL [5]: 47.8 ± 1.3%; inhibition at 250 µg/mL [5]: 62.3 ± 1.1%; inhibition at 500 µg/mL [5]: 71.5 ± 1.6%; inhibition at 1000 µg/mL [5]: 80.1 ± 1.2%
COc1ccc(C(=O)O)cc1OC [Compound VI, 3,4-dimethoxy benzoic acid] | 47 ± 1.1% | 61.4 ± 0.3% | 71.1 ± 1.6% | – | 67 µg/mL | 48.2 ± 2.3 ^ns % | 54.7 ± 2.1∗∗ % | 63.7 ± 0.8∗∗∗∗ % | 72.3 ± 0.3∗∗∗∗ % | 82.1 ± 1.2∗∗∗∗ % | 67 µg/mL | 48.2 ± 1.3∗∗ % | 61.1 ± 1.4∗∗∗ % | 71.0 ± 1.6∗∗∗∗ % | 81.2 ± 1.0∗∗∗∗ % | 53.5 ± 1.6% | 50.3 ± 2.4∗∗ % | 59.1 ± 1.9∗∗∗∗ % | 71.3 ± 1.7∗∗∗∗ % | 79.0 ± 3.2∗∗∗∗ % | Percent BChE inhibition (mean ± SEM) ([1]; 1000 μg/mL, n = 3): 79.8 ± 1.4∗∗ %; Alpha-glucosidase IC50 (α-glucosidase): 84 µg/mL; Alpha-glucosidase %inhibition (mean ± SEM) (α-glucosidase; 125 μg/mL): 54.3 ± 1.5∗∗∗ %; Alpha-glucosidase %inhibition (mean ± SEM) (α-glucosidase; 250 μg/mL): 62.5 ± 2.4∗∗∗ %; Alpha-glucosidase %inhibition (mean ± SEM) (α-glucosidase; 500 μg/mL): 68.2 ± 1.7∗∗ %; Alpha-glucosidase %inhibition (mean ± SEM) (α-glucosidase; 1000 μg/mL): 84.6 ± 1.5∗∗∗∗ %; Alpha-amylase IC50 (α-amylase): 112 µg/mL; solubility (description) [4]: soluble in organic solvents; IC50 [5]: 494 µM; inhibition at 62.5 µg/mL [5]: 47.2 ± 1.5%; inhibition at 250 µg/mL [5]: 62.1 ± 2%; inhibition at 500 µg/mL [5]: 71.2 ± 1.8%; inhibition at 1000 µg/mL [5]: 80.7 ± 1.1%
C[C@H]1O[C@H](O[C@H]2[C@H](O)[C@@H](O)[C@@H](O[C@H]3[C@H](O)[C@@H](O)C(O)O[C@@H]3CO)O[C@@H]2CO)[C@H](O)[C@@H](O)[C@@H]1N[C@H]1C=C(CO)[C@@H](O)[C@H](O)[C@H]1O (some centres unmarked) [Acarbose, reference compound] | – | – | – | – | – | – | – | – | – | – | – | – | – | – | – | – | 57.0 ± 1.2% | 66.4 ± 1.2% | 77.1 ± 1.4% | 92.1 ± 0.8% | –
O=C1O[C@H]([C@@H](O)CO)C(O)=C1O [Ascorbic acid, reference compound] | – | – | – | – | 38 µg/mL | 52.2 ± 2.3% | 63.2 ± 1.1% | 73.8 ± 2.2% | 84.1 ± 0.4% | 93.2 ± 0.1% | 39 µg/mL | 52.1 ± 1.1% | 72.1 ± 0.4% | 83.1 ± 1.1% | 93.0 ± 0.7% | – | – | – | – | – | –
